Results: patent publication EP0568229A1, “Control of deposition of organic contaminants in pulp and papermaking systems” (BETZ EUROPE, INC., priority 1992, dated 1993)
Like-named read-outs stand apart in the source and are kept apart here.

Columns and labels:
[1] = for % Control: Table IV; for Percent Control of Pitch: Table VI
Procedure: The slurry contained 0.5% bleached hardwood Kraft fiber, approximately 2000 parts per million of the potassium salt of a fatty acid blend, approximately 200 parts per million calcium from calcium chloride and approximately 300 parts per million sodium carbonate. The slurry was maintained at 50 °C and at a pH of 11.
It was stirred gently by an overhead stirrer and subjected to ultrasonic energy for 10 minutes. The deposit weight was determined by subtracting the starting weight of the pan from the weight of the pan plus the deposit after completion of the test. […] Studies of this type were conducted using hydrophobically modified associative polymers of the type described in this invention.

[2] = Stickie coupon peel strength test modified to examine the effect of dilution; conditions: Concen. 50 ppm; for 1st Dilution: 30 minutes in distilled water after the initial immersion; for No Dilution: Table X
Source text: In order to establish the efficacy of the materials used in the present invention as deposition control agents, on plastic surfaces and specifically for adhesive contaminants of the sort found in recycled fiber, a laboratory test was devised utilizing adhesive-backed tapes as stickie coupons. The stickie coupon can be fabricated from any type of adhesive tape that will not disintegrate when placed in water. For the study, tapes made from a styrenebutadiene rubber and vinylic esters were used. Both of these potential organic contaminants are known to cause problems "stickies" in secondary fiber utilization. A second coupon was fabricated from polyester film such as the product marketed as MYLAR by the DuPont Chemical Company. This material was chosen because papermachine forming fabrics are frequently made of polyester which is susceptible to considerable problem caused by stickies.
500 mL of solutions in 600 mL beakers containing various deposit control agents are placed in a water bath heated to 50 °C. The tape and the polyester film coupons are placed in the test solution so the adhesive side of the coupon faces away from the polyester film coupon. After 1 hour of immersion, the adhesive side of the stickie coupon is placed in contact with the polyester coupon and pressed to 1000 pound force.
The average peel strength of the bond formed between the tape coupon and the polyester coupon was measured with an Instron tensile tester. The peel strength of the bond formed between the stickie tape coupon and the polyester coupon was interpreted as a measure of the tendency for an organic contaminant to attach to components of a paper-machine and cause runnability or product quality problems. More specifically, this indicates the tendency of a stickies deposit to form on a plastic surface.
Papermaking consists of various processes which can be affected by sudden changes in pH, temperature, dilution (i.e., concentration), shear force, etc. Severe changes in these parameters can cause system shock which adversely impact paper production. Deposit control agents that can strongly adsorb onto the organic contaminant surface and resist the desorbing effects of dilution are highly desirable. Not only will deposition control be improved, but also the required dosage will be reduced, while negative side effects, such as forming and wet-end interferences, will be reduced or eliminated. The procedure outlined in Table VIII was modified to examine the effect of dilution on deposition control. Dilution was accomplished by immersing the adhesive tape and MYLAR in distilled water for 30 minutes after the initial immersion. This can be repeated as many times as desired.

Substance: Nonyl Phenol Ethoxylate [Nonyl Phenol Ethoxylate (Surfonic N-95)]
- % Control ([1]; 10 ppm): 9%
- Percent Control of Pitch ([1]; 10 ppm): 9%
- % Control ([1]; 50 ppm): 81%
- Percent Control of Pitch ([1]; 50 ppm): 81%

Substance: dodecylphenoxypoly(ethyleneoxy) ethanol [Sample 3]
- 2nd Dilution [2]: 16
- 3rd Dilution [2]: 5
- 4th Dilution [2]: 0
- 1st Dilution [2]: 34
- No Dilution [2]: 100

Substance: nonylphenol ethoxylate [Sample 2]
- 2nd Dilution [2]: 2
- 3rd Dilution [2]: 0
- 4th Dilution [2]: 0
- 1st Dilution [2]: 8
- No Dilution [2]: 100

Substance: octylphenoxy poly(ethyleneoxy)ethanol [Sample 1]
- 2nd Dilution [2]: 0
- 3rd Dilution [2]: 0
- 4th Dilution [2]: 0
- 1st Dilution [2]: 5
- No Dilution [2]: 100
